Measurements from patent US20220281866A1, “5,8-DISUBSTITUTED-[1,2,4]TRIAZOLO[1,5-A]PYRIDINYL AND 5,8-DISUBSTITUTED-IMIDAZO[1,2-A]PYRIDINE DERIVATIVES USEFUL AS INHIBITORS OF ENTEROPEPTIDASE” (Janssen Pharmaceutica NV, priority 2019, published 2022).

What was measured:
[1] = biological target: T1, Recombinant full-length human EP (Enteropeptidase) (Homo sapiens, UniProt P98073); assay: In vitro inhibition potencies against Enteropeptidase (EP), fluorescent peptide GDDDDK-naphthylamine substrate; type: biochemical; settings: 300 μM substrate, 1.25 nM EP; for inhibition at 0.1 µM: compound 0.1 μM; for inhibition at 1 µM: compound 1 μM; for inhibition at 10 µM: compound 10 μM; for kinact/KI: 12-point dose-dependence, time-dependent inhibition, duplicate dilutions, read-out: kinact/KI^App
T1 construct: Recombinant full-length human EP (PeproTech, Cat #450-48C); purchased PeproTech 450-48C
Method: In vitro inhibition potencies against Enteropeptidase (EP) Recombinant full-length human EP (PeproTech, Cat #450-48C) was used in this biochemical assay, with a quenched fluorescent labeled peptide GDDDDK-naphthylamine (NA) (Sigma, Cat #G5261) as the substrate in a buffer of 50 mM Tris-HCl pH 7.4, 200 mM NaCl and 0.01% Triton X-100. The enzyme activity was measured by following the formation of the cleavage product […](NA) by monitoring the fluorescence intensity (FI) at excitation/emission wavelengths of 340/410 nm. The steady-state kinetic characterization studies yielded an average of KM to be 412±22 μM and the apparent turnover number kcat^app of 11.8±0.4 s^−1 (N=2).
Compound inhibition studies were carried out under the conditions of 300 μM substrate and 1.25 nM EP. Reaction progress curves were collected by reading the FI at 340/410 nm continuously for 1 hour at an interval of 1 minute.
To screen compounds of formula (I), inhibition was studied at 4 different compound concentrations of 10 μM, 1 μM, 0.1 μM and 0.01 μM. Initial velocity of the reaction was determined, and percent of inhibition was calculated by comparing to the reaction in the absence of compound.
Accurate measurements of the inhibition potencies of selected compounds were studied in a 12-point dose-dependence fashion. […] Compound potency was measured by determining the inactivation rate constant (kobs) following the reaction change from the initial velocity vi to the steady-state velocity vs at various compound concentrations. The inactivation rate constants (kobs), were derived by fitting the reaction progress curves to eq. 1.
where YT is the detection signal of the reaction at time t, vi and vs are the initial and the steady-state velocities of the reaction, t is the reaction time. Y0 is the background signal (when t=0).
Compound binding mechanism was shown by plotting kobs˜[compound]. Hyperbolic fitting to eq. 2
conforms to a two-step binding mechanism as shown in Scheme BIO-1.
The plateau of the curve is the forward step rate constant of the isomerization step k3, KI^app is the inhibitor concentration that leads to half-maximal rate of inhibition of enzyme under the assay conditions. Compound inhibition potency was reported by the value of k3/KI^app.
A linear dependence of eq.3
indicates a one-step binding mechanism as shown in Scheme BIO-2
Slope of the linear fit gives the second-order rate constant of the compound binding k1, which is used to represent the compound inhibition potency.
(§1) Representative compounds of the present invention were tested according to the procedures as described in Biological Example 1 and Biological Example 2 above, with results as listed in Table 2 and Table 3, below. Results are reported as the %-inhibition (% Inh) or Kinact/KI value. Variability for the functional assay was typically within 20%. For the column headed Kinact/KI the listed measurement is the result of duplicate dilutions.

[2] = biological target: T2, Bovine trypsin (Bos taurus, UniProt P00760); assay: Biochemical Assay of Trypsin (T), H-D-CHA-AR-AMC substrate; settings: 15 μM substrate, 0.025 nM Trypsin; for inhibition at 0.1 µM: compound 0.1 μM; for inhibition at 1 µM: compound 1 μM; for inhibition at 10 µM: compound 10 μM; for kinact/KI: 12-point dose-dependence, time-dependent inhibition, duplicate dilutions, read-out: Kinact/KI^App
T2 construct: purchased Sigma-Aldrich T1426
T2 sequence (P00760 24-246): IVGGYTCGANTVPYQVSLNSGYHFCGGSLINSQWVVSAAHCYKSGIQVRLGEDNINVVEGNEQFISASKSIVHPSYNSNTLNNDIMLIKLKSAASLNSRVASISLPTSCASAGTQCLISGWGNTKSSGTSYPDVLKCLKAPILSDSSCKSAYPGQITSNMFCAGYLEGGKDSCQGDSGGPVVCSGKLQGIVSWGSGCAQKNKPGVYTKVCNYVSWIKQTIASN
Method: Bovine trypsin was purchased from Sigma-Aldrich (Cat No. T1426), and 7-amino-4-methylcoumarin (AMC) conjugated peptide H-D-cyclohexylalanine (D-CHA)-AR-AMC was used as the substrate in the assay. The protease activity of trypsin was followed by measuring AMC production by the emission fluorescence intensity of AMC at 460 nm with the excitation at 375 nm, in the same assay buffer as used in the EP assay. The enzyme kinetic characterization studies yielded an average of KM to be 3.9±0.5 μM and the apparent turnover number kcat^app of 33.8±0.4 s^−1 (N=2).
Studies of compound inhibition against T were carried out under the conditions of 15 μM substrate and 0.025 nM Trypsin. Reaction progress curves were collected by reading the FI at 375/460 nm continuously for 1 hour at an interval of 1 minute. Similar to the procedure for Enteropeptidase described above, compounds of formula (I) were screened against Trypsin at 4 different concentrations to obtain the percent of inhibition at 10 μM, 1 μM, 0.1 μM and 0.01 μM, and accurate potencies of selected compounds against Trypsin were derived from detailed 12-point dose-dependence studies for time-dependent inhibitors.
as §1

T1 sequence (P98073 whole entry): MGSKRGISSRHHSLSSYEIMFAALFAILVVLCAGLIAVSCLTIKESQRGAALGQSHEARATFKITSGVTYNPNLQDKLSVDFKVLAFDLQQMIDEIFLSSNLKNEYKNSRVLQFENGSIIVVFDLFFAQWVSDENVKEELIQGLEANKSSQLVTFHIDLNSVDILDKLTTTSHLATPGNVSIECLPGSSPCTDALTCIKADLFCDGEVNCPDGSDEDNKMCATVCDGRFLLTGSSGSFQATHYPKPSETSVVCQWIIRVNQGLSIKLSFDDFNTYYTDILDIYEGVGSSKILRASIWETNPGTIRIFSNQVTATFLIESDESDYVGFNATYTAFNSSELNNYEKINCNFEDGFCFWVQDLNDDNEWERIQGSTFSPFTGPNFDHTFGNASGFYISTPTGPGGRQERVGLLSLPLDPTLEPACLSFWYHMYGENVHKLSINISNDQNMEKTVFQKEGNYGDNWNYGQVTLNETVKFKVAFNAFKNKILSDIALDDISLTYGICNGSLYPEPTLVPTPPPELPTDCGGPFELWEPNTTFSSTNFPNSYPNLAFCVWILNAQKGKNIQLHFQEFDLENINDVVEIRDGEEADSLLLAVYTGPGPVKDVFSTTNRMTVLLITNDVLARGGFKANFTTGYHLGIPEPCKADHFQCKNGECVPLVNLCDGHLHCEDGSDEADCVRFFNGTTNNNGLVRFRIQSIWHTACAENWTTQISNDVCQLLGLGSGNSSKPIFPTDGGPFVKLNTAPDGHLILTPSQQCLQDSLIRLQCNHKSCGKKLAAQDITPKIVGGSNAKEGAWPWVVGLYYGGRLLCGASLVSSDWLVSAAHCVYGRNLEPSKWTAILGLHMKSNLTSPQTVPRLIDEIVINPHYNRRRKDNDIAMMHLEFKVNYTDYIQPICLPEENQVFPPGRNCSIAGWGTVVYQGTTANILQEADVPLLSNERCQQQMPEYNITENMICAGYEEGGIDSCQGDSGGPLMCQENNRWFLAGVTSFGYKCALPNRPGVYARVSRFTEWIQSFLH

inhibition at 0.1 µM [1] [%] | inhibition at 1 µM [1] [%] | inhibition at 10 µM [1] [%] | inhibition at 0.1 µM [2] [%] | inhibition at 1 µM [2] [%] | inhibition at 10 µM [2] [%] | kinact/KI [1] [M⁻¹ s⁻¹] | kinact/KI [2] [M⁻¹ s⁻¹] | Structure (SMILES)
-1.5 | 15.8 | 65 | 0.9 | 7.6 | 45 | – | – | N=C(N)Nc1ccc(C(=O)Oc2ccc(CC(=O)O)n3ncnc23)cc1I [Compound 13, 2-(8-(4-guanidino-3-iodobenzoyloxy)-[1,2,4]triazolo[1,5-a]pyridin-5-yl)acetic acid]
73 | 101 | 100 | 99.8 | 100 | 100 | – | – | N=C(N)Nc1ccc(C(=O)Oc2ccc(C3OC(=O)NC3=O)n3ncnc23)cc1 (stereo not shown) [Compound 17, 5-(2,4-dioxooxazolidin-5-yl)-[1,2,4]triazolo[1,5-a]pyridin-8-yl 4-guanidinobenzoate]
4.1 | 38.5 | 98.9 | 2.3 | 16.6 | 88.7 | – | – | N=C(N)Nc1ccc(C(=O)Oc2ccc(CC(=O)O)n3ncnc23)c(C(F)(F)F)c1 [Compound 20, 2-(8-(4-guanidino-2-(trifluoromethyl)benzoyloxy)-[1,2,4]triazolo [1,5-a]pyridin-5-yl)acetic acid]
47.8 | 99.6 | 100 | 11.5 | 68 | 99.7 | – | – | CC(=N)Nc1ccc(C(=O)Oc2ccc(CC(=O)O)n3ncnc23)cc1 [Compound 37, 2-(8-(4-acetimidamidobenzoyloxy)-[1,2,4]triazolo[1,5-a]pyridin-5-yl)acetic acid]
62.3 | 98.5 | 99.8 | 52.9 | 99.6 | 100 | 52800 | 59400 | C#CCOCCOCC#Cc1cc(NC(=N)N)ccc1C(=O)Oc1ccc(CC(=O)O)n2ncnc12 [Compound 42, 2-(8-((4-guanidino-2-(3-(2-(prop-2-yn-1-yloxy)ethoxy)prop-1-yn-1-yl)benzoyl)oxy)-[1,2,4]triazolo[1,5-a]pyridin-5-yl)acetic acid]
101 | 100 | 100 | 98.8 | 100 | 99.9 | 181000 | 163000 | CS(=O)(=O)NC(=O)Cc1ccc(OC(=O)c2ccc(NC(=N)N)cc2)c2ncnn12 [Compound 8, 5-(2-(methylsulfonamido)-2-oxoethyl)-[1,2,4]triazolo[1,5-a]pyridin-8-yl4-guanidinobenzoate]
10.5 | 57.9 | 93.2 | 10.9 | 58.3 | 93 | – | – | N=C1NCCN1c1ccc(C(=O)Oc2ccc(CC(=O)O)n3ncnc23)cc1 [Compound 32, 2-(8-(4-(2-iminoimidazolidin-1-yl)benzoyloxy)-[1,2,4]triazolo[1,5-a]pyridin-5-yl)acetic acid]
40.5 | 93.8 | 99.3 | 31.4 | 89.2 | 98.9 | – | – | CN(C(=N)N)c1ccc(C(=O)Oc2ccc(CC(=O)O)n3ncnc23)cc1 [Compound 35, 2-(8-(4-(1-methylguanidino)benzoyloxy)-[1,2,4]triazolo[1,5-a]pyridin-5-yl)acetic acid]
82 | 100 | 100 | 93.8 | 99.9 | 99.8 | – | – | N=C(N)Nc1ccc(C(=O)Oc2ccc(CC(=O)O)n3ncnc23)s1 [Compound 10, 2-(8-(5-guanidinothiophene-2-carbonyloxy)-[1,2,4]triazolo[1,5-a]pyridin-5-yl)acetic acid]
1.3 | 6.3 | 36.7 | -0.1 | 8.4 | 35.5 | – | – | Cc1cc(C(=O)Oc2ccc(CC(=O)O)n3ncnc23)ccc1NC(=N)N [Compound 15, 2-(8-(4-guanidino-3-methylbenzoyloxy)-[1,2,4]triazolo[1,5-a]pyridin-5-yl)acetic acid]
10.3 | 59.9 | 101 | 9.5 | 48.9 | 99.7 | – | – | Cc1cc(NC(=N)N)ccc1C(=O)Oc1ccc(CC(=O)O)n2ncnc12 [Compound 19, 2-(8-(4-guanidino-2-methylbenzoyloxy)-[1,2,4]triazolo[1,5-a]pyridin-5-yl)acetic acid]
48.3 | 101 | 100 | 98.3 | 100 | 100 | – | – | N=C(N)Nc1ccc(C(=O)Oc2ccc(CC(=O)NC(CC(=O)O)C(=O)O)n3ncnc23)cc1 (stereo not shown) [Compound 5, 2-(2-(8-(4-guanidinobenzoyloxy)-[1,2,4]triazolo[1,5-a]pyridin-5-yl)acetamido)succinic acid]
99.4 | 100 | 100 | 97.1 | 99.7 | 100 | – | – | N=C(N)Nc1ccc(C(=O)Oc2ccc(CC(=O)O)n3ncnc23)c(F)c1 [Compound 21, 2-(8-(2-fluoro-4-guanidinobenzoyloxy)-[1,2,4]triazolo[1,5-a]pyridin-5-yl)acetic acid]
18.7 | 84.4 | 101 | 6.3 | 56.6 | 99.8 | – | – | N=C(N)Nc1ccc(C(=O)Oc2ccc(CC(=O)O)n3ncnc23)cc1Cl [Compound 16, 2-(8-(3-chloro-4-guanidinobenzoyloxy)-[1,2,4]triazolo[1,5-a]pyridin-5-yl)acetic]
81.2 | 100 | 100 | 99.3 | 100 | 100 | – | – | N=C(N)Nc1ccc(C(=O)Oc2ccc(CC(=O)NC(CC(=O)O)C(=O)O)n3ccnc23)cc1 (stereo not shown) [Compound 27, 2-(2-(8-(4-guanidinobenzoyloxy)imidazo[1,2-a]pyridin-5-yl)acetamido)succinic acid]
